According to patent publication US11926619B2, “Certain pladienolide compounds and methods of use” (EISAI R&D MANAGEMENT CO., LTD., priority 2018, dated 2024):

Assays:
[1] = system: WiDr cells (colon cancer cells; wildtype SF3B1); test: Cell viability assay (CellTiter-Glo, 72 hr), WiDr cells; assay type: cell-based; settings: Homo sapiens; WiDr cells (wildtype SF3B1); read-out: WiDr GI50
How it was run: (§1)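 Cells at 2000/well were exposed to 9 compound concentrations (0.1% DMSO) in duplicate or triplicate for 72 hr at 37 °C. ATP was read by CellTiter-Glo against a time-zero plate and DMSO control growth. Percent growth/viability was plotted against concentration to give Emax; negative values indicate lethality.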

[2] = system: WiDr-R cells (colon cancer cells; chemically-induced SF3B1 R1074H mutant); test: Cell viability assay (CellTiter-Glo, 72 hr), resistant WiDr-R cells (counter-screen); assay type: cell-based; settings: WiDr-R cells (SF3B1 R1074H mutation, resistant); read-out: WiDr-R GI50
How it was run: as §1

SF3b complexes = target: T1, SF3b complexes (Homo sapiens, UniProt O75533+Q7RTV0); test: Scintillation proximity assay (SPA) with [3H]-labelled pladienolide probe; assay type: binding; settings: wt SF3B1, read-out: SPA (wt SF3B1 cells) IC50
T1 construct: endogenous in cells
Description: Batch immobilization of anti-SF3B1 antibody (MBL) to anti-mouse PVT SPA scintillation beads (PerkinElmer) was prepared as follows: for every 2.5 mg of nuclear extracts, 5 μg anti-SF3B1 antibody and 1.5 mg of beads were mixed in 150 μl PBS. The antibody-bead mixture was incubated for 30 min at RT and centrifuged at 18,000 g for 5 min. 150 μl PBS was used to resuspend every 1.5 mg antibody-bead mixture. The beads were suspended and added to the prepared nuclear extracts. The slurry was incubated for 2 h at 4° C. with gentle mixing. The beads were then collected by centrifuging at 18,000 g for 5 min, and washed twice with PBS+0.1% Triton X-100. After a final centrifugation step, every 1.5 mg of beads was suspended with 150 μl of PBS. The SF3b complexes were tested for [^3H]-labelled pladienolide probe binding ([^3H]-PB), synthesized as previously described (Kotake et al., 2007). 100 μL binding reactions were prepared with 50 μl bead slurry and by adding varying concentrations of PB or PB—OH, and after 30 min pre-incubation, 2.5 nM [^3H]—PB was added. The mixture was incubated for 30 min, and luminescence signals were read using a MicroBeta2 Plate Counter (PerkinElmer). Prism 6 (Graphpad) was used for non-linear regression curve fitting of the data.

[3] = system: Panc 05.04 cells (pancreatic cancer cells; Q699H and K700E mutations in SF3B1); test: Cell viability assay (CellTiter-Glo, 72 hr), Panc 05.04 cells; assay type: cell-based; settings: Panc 05.04 cells (mutant SF3B1); for Emax: maximum achievable response in tested dose range, negative value = cellular lethality, read-out: Panc 05.04 (mt SF3B1 cells) Emax (%); for GI50: read-out: Panc 05.04 (mt SF3B1 cells), GI50
How it was run: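 Panc 05.04 cells treated 72 hr at 37 °C with 9 compound concentrations (0.1% DMSO), duplicate or triplicate. ATP read by CellTiter-Glo; growth inhibition/viability calculated against a time-zero plate and DMSO control growth. Emax is the maximal response over the tested range, negative values meaning lethality.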

SMILES	GI50 [1]	GI50 [2]	IC50 (SF3b complexes)	Emax [3]	GI50 [3]
C/C(=C\C=C\[C@@H](C)COC(=O)N1CC[C@H](F)C1)[C@H]1OC(=O)C[C@H](O)CC[C@@](C)(O)[C@@H](OC(=O)N2CCN(C3CCCCCC3)CC2)/C=C/[C@@H]1C	4.3 nM	> 1000 nM	1.93 nM	-79.4%	1.76 nM
C/C(=C\C=C\[C@@H](C)c1ccccn1)[C@H]1OC(=O)C[C@H](O)CC[C@@](C)(O)[C@@H](OC(=O)N2CCN(C3CCCCC3)CC2)/C=C/[C@@H]1C	21.2 nM	> 1000 nM	3.32 nM	-94.3%	21.4 nM
C/C(=C\C=C\[C@@H](C)COC(=O)N1[C@H](C)CC[C@H]1C)[C@H]1OC(=O)C[C@H](O)CC[C@@](C)(O)[C@@H](OC(=O)N2CCN(C)CC2)/C=C/[C@@H]1C	1.03 nM	> 1000 nM	2.77 nM	-68.1%	1.12 nM
C/C(=C\C=C\[C@@H](C)COC(=O)N1CC[C@@H](C(=O)O)C1)[C@H]1OC(=O)C[C@H](O)CC[C@@](C)(O)[C@@H](OC(=O)N2CCN(C3CCCCCC3)CC2)/C=C/[C@@H]1C	692 nM	> 1000 nM	2.25 nM	-58.3%	108 nM
C/C(=C\C=C\[C@@H](C)CNC(=O)N1CCCC1)[C@H]1OC(=O)C[C@H](O)CC[C@@](C)(O)[C@@H](OC(=O)N2CCN(C)CC2)/C=C/[C@@H]1C	76.6 nM	> 1000 nM	7.62 nM	-90.4%	54.1 nM
COC[C@H]1CCCN1C(=O)OC[C@H](C)/C=C/C=C(\C)[C@H]1OC(=O)C[C@H](O)CC[C@@](C)(O)[C@@H](OC(C)=O)/C=C/[C@@H]1C	71.6 nM	> 1000 nM	60.7 nM	-90.9%	76.5 nM
C/C(=C\C=C\[C@@H](C)c1ccccn1)[C@H]1OC(=O)C[C@H](O)CC[C@@](C)(O)[C@@H](OC(=O)N2CCN(C(C)(C)C)CC2)/C=C/[C@@H]1C	76 nM	> 1000 nM	13.1 nM	-78.1%	66 nM
C/C(=C\C=C\[C@@H](C)COC(=O)N1CCCC12COC2)[C@H]1OC(=O)C[C@H](O)CC[C@@](C)(O)[C@@H](OC(=O)N2CCN(C)CC2)/C=C/[C@@H]1C	47.2 nM	> 1000 nM	9.56 nM	90.7%	31.5 nM
C/C(=C\C=C\[C@@H](C)COC(=O)N1CC=CC1)[C@H]1OC(=O)C[C@H](O)CC[C@@](C)(O)[C@@H](OC(=O)N2CCN(C3CCCCCC3)CC2)/C=C/[C@@H]1C	22.2 nM	> 1000 nM	3.68 nM	-89.8%	3.68 nM
C/C(=C\C=C\[C@H](C)c1ccccn1)[C@H]1OC(=O)C[C@H](O)CC[C@@](C)(O)[C@@H](OC(=O)N2CCN(C3CCCCCC3)CC2)/C=C/[C@@H]1C	65 nM	> 1000 nM	5.95 nM	-90%	71.8 nM
C/C(=C\C=C\[C@@H](C)c1ccccn1)[C@H]1OC(=O)C[C@H](O)CC[C@H](C)[C@@H](OC(=O)N2CCN(C)CC2)/C=C/[C@@H]1C	15.3 nM	> 10000 nM	3.78 nM	-94.3%	8.07 nM
C/C(=C\C=C\[C@@H](C)c1ccccn1)[C@H]1OC(=O)C[C@H](O)CC[C@@](C)(O)[C@@H](OC(=O)N2CCN(C3CCC3)CC2)/C=C/[C@@H]1C	36.7 nM	> 1000 nM	7.23 nM	-83.6%	38.9 nM
C/C(=C\C=C\[C@@H](C)c1ccccn1)[C@H]1OC(=O)C[C@H](O)CC[C@@](C)(O)[C@@H](OC(=O)N2CCN(C(C)C)CC2)/C=C/[C@@H]1C	31.8 nM	> 1000 nM	6.37 nM	-90.1%	26.6 nM
C/C(=C\C=C\[C@@H](C)COC(=O)N1CC[C@@H](O)C1)[C@H]1OC(=O)CCCCC[C@@H](OC(=O)N2CCN(C)CC2)/C=C/[C@@H]1C	8.59 nM	2840 nM	5.42 nM	-87%	6.48 nM
C/C(=C\C=C\C(C)c1ncccn1)[C@H]1OC(=O)C[C@H](O)CC[C@@](C)(O)[C@@H](OC(=O)N2CCN(C)CC2)/C=C/[C@@H]1C (stereo partly shown)	60.1 nM	> 1000 nM	38.4 nM	-22.2%	155 nM
C/C(=C\C=C\[C@@H](C)c1ccccn1)[C@H]1OC(=O)C[C@H](O)CC[C@@](C)(O)[C@@H](OC(=O)N2C[C@H]3C[C@H]2CN3C)/C=C/[C@@H]1C	41.5 nM	> 1000 nM	12.3 nM	-29.4%	56.4 nM
C/C(=C\C=C\[C@@H](C)c1ccccn1)[C@H]1OC(=O)C[C@H](O)CC[C@@](C)(O)[C@@H](OC(=O)N2CCCN(C)CC2)/C=C/[C@@H]1C	33.1 nM	> 1000 nM	6.87 nM	-23.1%	84.9 nM
C/C(=C\C=C\[C@H](C)c1ccccn1)[C@H]1OC(=O)C[C@H](O)CC[C@@](C)(O)[C@@H](OC(=O)N2CCC(N3CCCCCC3)CC2)/C=C/[C@@H]1C	7.18 nM	> 1000 nM	2.35 nM	-93.8%	13.6 nM
C/C(=C\C=C\[C@@H](C)c1ccccn1)[C@H]1OC(=O)C[C@H](O)CC[C@@](C)(O)[C@@H](OC(=O)N2CC3(C2)CN(C2CCCCCC2)C3)/C=C/[C@@H]1C	130 nM	> 1000 nM	71.3 nM	-41.9%	115 nM
C/C(=C\C=C\[C@@H](C)Cn1cc(C2CC2)nn1)[C@H]1OC(=O)C[C@H](O)CC[C@@](C)(O)[C@@H](OC(=O)N2CCN(C3CCCCCC3)CC2)/C=C/[C@@H]1C	51.8 nM	> 1000 nM	14.1 nM	-94.5%	38.6 nM
C/C(=C\C=C\[C@@H](C)COC(=O)N1CCCC1)[C@H]1OC(=O)CCCCC[C@@H](NC(=O)N2CCN(C)CC2)/C=C/[C@@H]1C	18.5 nM	> 1000 nM	14.4 nM	-93.6%	19 nM
C/C(=C\C=C\C(C)c1ccnc(N(C)C)n1)[C@H]1OC(=O)C[C@H](O)CC[C@@](C)(O)[C@@H](OC(=O)N2CCN(C3CCCCCC3)CC2)/C=C/[C@@H]1C (stereo partly shown)	40.1 nM	> 10000 nM	16.1 nM	-94.5%	98.3 nM
CC(=O)O[C@H]1/C=C/[C@H](C)[C@@H](/C(C)=C/C=C/[C@@H](C)COC(=O)N2CCN(C)CC2)OC(=O)C[C@H](O)CC[C@@]1(C)O	106 nM	> 1000 nM	236 nM	-88.8%	203 nM
CC(=O)O[C@H]1/C=C/[C@H](C)[C@@H](/C(C)=C/C=C/[C@H](C)c2ccccn2)OC(=O)C[C@H](O)CC[C@@]1(C)O	205 nM	> 10000 nM	235 nM	1.96%	546 nM
CC(=O)O[C@H]1/C=C/[C@H](C)[C@@H](/C(C)=C/C=C/[C@@H](C)COC(=O)N(C)C(C)C)OC(=O)C[C@H](O)CC[C@@]1(C)O	32.6 nM	> 10000 nM	4.85 nM	-87.4%	54.6 nM
C/C(=C\C=C\[C@@H](C)COC(=O)N1CCC[C@H]1CO)[C@H]1OC(=O)CCCCC[C@@H](OC(=O)N2CCN(C)CC2)/C=C/[C@@H]1C	2.52 nM	423 nM	3.61 nM	-62.8%	2.9 nM
CC(=O)O[C@H]1/C=C/[C@H](C)[C@@H](/C(C)=C/C=C/[C@@H](C)COC(=O)N2CC[C@H](O)C2)OC(=O)C[C@H](O)CC[C@@]1(C)O	51.5 nM	> 10000 nM	96.5 nM	-89.6%	45.1 nM
C/C(=C\C=C\C(C)c1ccncn1)[C@H]1OC(=O)C[C@H](O)CC[C@@](C)(O)[C@@H](OC(=O)N2CCN(C3CCCCCC3)CC2)/C=C/[C@@H]1C (stereo partly shown)	532 nM	> 1000 nM	504 nM	-26.6%	956 nM
C/C(=C\C=C\[C@@H](C)c1ccccn1)[C@H]1OC(=O)C[C@H](O)CC[C@@](C)(O)[C@@H](OC(=O)N2CCCN(C3CCCCCC3)CC2)/C=C/[C@@H]1C	74.9 nM	> 1000 nM	7.32 nM	-12.7%	104 nM
